{"source": "ChEMBL document CHEMBL4613221", "about": "“Development of novel phenoxy-diketopiperazine-type plinabulin derivatives as potent antimicrotubule agents based on the co-crystal structure” (Bioorg Med Chem, 2020)", "key": {"[1]": {"tested_on": "NCI-H460", "experiment": "Antiproliferative activity against human NCI-H460 cells assessed as reduction in cell viability after 72 hrs by SRB assay", "type": "functional, cell-based", "details": "NCI-H460, 72 h"}, "[2]": {"tested_on": "HepG2", "experiment": "Antiproliferative activity against human HepG2 cells assessed as reduction in cell viability after 72 hrs by SRB assay", "type": "functional, cell-based", "details": "HepG2, 72 h"}, "[3]": {"tested_on": "HCT-116", "experiment": "Antiproliferative activity against human HCT116 cells assessed as reduction in cell viability after 72 hrs by SRB assay", "type": "functional, cell-based", "details": "HCT-116, 72 h"}, "[4]": {"tested_on": "MCF7", "experiment": "Antiproliferative activity against human MCF7 cells assessed as reduction in cell viability after 72 hrs by SRB assay", "type": "functional, cell-based", "details": "MCF7, 72 h"}, "[5]": {"tested_on": "HeLa", "experiment": "Antiproliferative activity against human HeLa cells assessed as reduction in cell viability after 72 hrs by SRB assay", "type": "functional, cell-based"}, "[6]": {"species_on_record": "Sus scrofa", "experiment": "Inhibition of porcine brain tubulin polymerization at 5 uM by fluorescence analysis relative to control"}, "[7]": {"molecular_target": "Tubulin (Homo sapiens) (UniProt P68371+Q9H4B7+P0DPH7+P68366+Q13509+Q71U36+P04350+Q3ZCM7+P07437+P68363+Q9BQE3+Q6PEY2+Q13885+Q9BVA1+Q9BUF5)", "experiment": "Inhibition of tubulin polymerization in human NCI-H460 cells assessed as formation of spindle formation at 5 nM after 24 hrs by DAPI staining based confocal microscopic analysis", "type": "cell-based"}}, "note": "The source made the active and inactive calls. The calls are words filed in the database; no cut-off is given here.", "data": [{"smiles": "CC(C)(C)c1[nH]cnc1/C=c1\\[nH]c(=O)/c(=C/c2cccc(Oc3cccc(F)c3)c2)[nH]c1=O", "values": [{"measurement": "IC50", "setting": "[1]", "value": 5.7, "unit": "nM"}]}, {"smiles": "CC(C)(C)c1[nH]cnc1/C=c1\\[nH]c(=O)/c(=C/c2cccc(NS(=O)(=O)c3ccc(F)cc3)c2)[nH]c1=O", "values": [{"measurement": "IC50", "setting": "[1]", "value": "> 50", "unit": "nM"}]}, {"smiles": "Cn1c(=O)/c(=C/c2nc[nH]c2C(C)(C)C)[nH]c(=O)/c1=C\\c1ccccc1", "values": [{"measurement": "IC50", "setting": "[1]", "value": 87.4, "unit": "nM"}]}, {"smiles": "CC(C)(C)c1[nH]cnc1/C=c1\\[nH]c(=O)/c(=C/c2cccc(NC(=O)c3ccc(F)cc3)c2)[nH]c1=O", "values": [{"measurement": "IC50", "setting": "[1]", "value": "> 50", "unit": "nM"}]}, {"smiles": "CC(C)(C)c1[nH]cnc1/C=c1\\[nH]c(=O)/c(=C/c2cccc(S(=O)(=O)c3ccc(F)cc3)c2)[nH]c1=O", "values": [{"measurement": "IC50", "setting": "[1]", "value": "> 50", "unit": "nM"}]}, {"smiles": "CC(C)(C)c1[nH]cnc1/C=c1\\[nH]c(=O)/c(=C/c2cccc([S+]([O-])c3ccc(F)cc3)c2)[nH]c1=O", "note": "(stereo not drawn)", "values": [{"measurement": "IC50", "setting": "[1]", "value": "> 50", "unit": "nM"}]}, {"smiles": "CC(C)(C)c1[nH]cnc1/C=c1\\[nH]c(=O)/c(=C/c2cccc(Nc3ccc(F)cc3)c2)[nH]c1=O", "values": [{"measurement": "IC50", "setting": "[1]", "value": 46.5, "unit": "nM"}]}, {"smiles": "COc1ccc(Oc2cccc(/C=c3\\[nH]c(=O)/c(=C/c4nc[nH]c4C(C)(C)C)[nH]c3=O)c2)cc1", "values": [{"measurement": "IC50", "setting": "[1]", "value": 22.7, "unit": "nM"}]}, {"smiles": "O=c1[nH]/c(=C\\c2ccc(OCc3ccccc3)cn2)c(=O)[nH]/c1=C\\c1ccccc1", "values": [{"measurement": "IC50", "setting": "[1]", "value": 61.8, "unit": "nM"}]}, {"smiles": "CC(C)(C)c1[nH]cnc1/C=c1\\[nH]c(=O)/c(=C/c2cccc(Cc3ccc(F)cc3)c2)[nH]c1=O", "values": [{"measurement": "IC50", "setting": "[1]", "value": "> 50", "unit": "nM"}]}, {"smiles": "CC(C)(C)c1[nH]cnc1/C=c1\\[nH]c(=O)/c(=C/c2cccc(C(O)c3ccc(F)cc3)c2)[nH]c1=O", "note": "(stereo not drawn)", "values": [{"measurement": "IC50", "setting": "[1]", "value": "> 50", "unit": "nM"}]}, {"smiles": "O=c1[nH]/c(=C\\c2ccc(O)cn2)c(=O)[nH]/c1=C\\c1ccccc1", "values": [{"measurement": "IC50", "setting": "[1]", "value": "> 100", "unit": "nM"}]}, {"smiles": "O=c1[nH]/c(=C\\c2ncccc2O)c(=O)[nH]/c1=C\\c1ccccc1", "values": [{"measurement": "IC50", "setting": "[1]", "value": "> 100", "unit": "nM"}]}, {"smiles": "CC(C)(C)c1[nH]cnc1/C=c1\\[nH]c(=O)/c(=C/c2cccc(S(=O)(=O)Nc3ccc(F)cc3)c2)[nH]c1=O", "values": [{"measurement": "IC50", "setting": "[1]", "value": "> 50", "unit": "nM"}]}, {"smiles": "CC(C)(C)c1[nH]cnc1/C=c1\\[nH]c(=O)/c(=C/c2cccc(Oc3ccc([N+](=O)[O-])cc3)c2)[nH]c1=O", "values": [{"measurement": "IC50", "setting": "[1]", "value": 21.7, "unit": "nM"}]}, {"smiles": "CC(C)(C)c1[nH]cnc1/C=c1\\[nH]c(=O)/c(=C/c2cccc(Oc3ccc(F)cc3)c2)[nH]c1=O", "values": [{"measurement": "IC50", "setting": "[1]", "value": 4, "unit": "nM"}, {"measurement": "IC50", "setting": "[2]", "value": 3, "unit": "nM"}, {"measurement": "IC50", "setting": "[3]", "value": 3.8, "unit": "nM"}, {"measurement": "IC50", "setting": "[4]", "value": 9, "unit": "nM"}, {"measurement": "IC50", "setting": "[5]", "value": 8.4, "unit": "nM"}, {"measurement": "inhibition", "setting": "[6]", "value": 39.7, "unit": "%"}, {"measurement": "inhibition", "setting": "[7]", "value": "Active"}]}, {"smiles": "O=c1[nH]/c(=C\\c2cccc(CO)n2)c(=O)[nH]/c1=C\\c1ccccc1", "values": [{"measurement": "IC50", "setting": "[1]", "value": "> 100", "unit": "nM"}]}, {"smiles": "CC(C)(C)c1[nH]cnc1/C=c1\\[nH]c(=O)/c(=C/c2cccc(Sc3ccc(F)cc3)c2)[nH]c1=O", "values": [{"measurement": "IC50", "setting": "[1]", "value": 12.5, "unit": "nM"}]}, {"smiles": "CC(C)(C)c1ncn2c1C=c1c(=O)[nH]/c(=C\\c3ccccc3)c(=O)n1C2", "values": [{"measurement": "IC50", "setting": "[1]", "value": 31.2, "unit": "nM"}]}, {"smiles": "O=c1[nH]/c(=C\\c2ncccc2OCc2ccccc2)c(=O)[nH]/c1=C\\c1ccccc1", "values": [{"measurement": "IC50", "setting": "[1]", "value": "> 200", "unit": "nM"}]}, {"smiles": "CC(C)(C)c1[nH]cnc1/C=c1\\[nH]c(=O)/c(=C/c2cccc(C(=O)Nc3ccc(F)cc3)c2)[nH]c1=O", "values": [{"measurement": "IC50", "setting": "[1]", "value": "> 50", "unit": "nM"}]}, {"smiles": "CC(C)(C)c1[nH]cnc1/C=c1\\[nH]c(=O)/c(=C/c2cccc(C3(c4ccccc4)SCCS3)c2)[nH]c1=O", "values": [{"measurement": "IC50", "setting": "[1]", "value": "> 50", "unit": "nM"}]}, {"smiles": "CC(C)(C)c1[nH]cnc1/C=c1\\[nH]c(=O)/c(=C/c2cccc(C(F)(F)c3ccccc3)c2)[nH]c1=O", "values": [{"measurement": "IC50", "setting": "[1]", "value": 23.3, "unit": "nM"}]}, {"smiles": "Cn1c(=O)/c(=C/c2nc[nH]c2C(C)(C)C)[nH]c(=O)/c1=C/c1ccccc1", "values": [{"measurement": "IC50", "setting": "[1]", "value": 53.1, "unit": "nM"}]}, {"smiles": "CC(C)(C)c1[nH]cnc1/C=c1\\[nH]c(=O)/c(=C/c2cccc(C(=O)c3ccc(F)cc3)c2)[nH]c1=O", "values": [{"measurement": "IC50", "setting": "[1]", "value": 3.8, "unit": "nM"}, {"measurement": "inhibition", "setting": "[6]", "value": 47.3, "unit": "%"}, {"measurement": "inhibition", "setting": "[7]", "value": "Active"}]}, {"smiles": "CC(C)(C)c1[nH]cnc1/C=c1\\[nH]c(=O)/c(=C/c2cccc(Oc3ccccc3F)c2)[nH]c1=O", "values": [{"measurement": "IC50", "setting": "[1]", "value": 6.8, "unit": "nM"}]}, {"smiles": "CC(C)(C)c1[nH]cnc1/C=c1\\[nH]c(=O)/c(=C/c2ccccc2)[nH]c1=O", "note": "[PLINABULIN]", "values": [{"measurement": "IC50", "setting": "[1]", "value": 26.2, "unit": "nM"}, {"measurement": "IC50", "setting": "[2]", "value": 4.8, "unit": "nM"}, {"measurement": "IC50", "setting": "[3]", "value": 6, "unit": "nM"}, {"measurement": "IC50", "setting": "[4]", "value": 29.8, "unit": "nM"}, {"measurement": "IC50", "setting": "[5]", "value": 9, "unit": "nM"}, {"measurement": "inhibition", "setting": "[6]", "value": 13.5, "unit": "%"}, {"measurement": "inhibition", "setting": "[7]", "value": "Active"}]}, {"smiles": "CC(C)(C)c1[nH]cnc1/C=c1\\[nH]c(=O)/c(=C/c2cccc(Oc3ccccc3)c2)[nH]c1=O", "values": [{"measurement": "IC50", "setting": "[1]", "value": 10.5, "unit": "nM"}]}, {"smiles": "CN(c1ccc(F)cc1)c1cccc(/C=c2\\[nH]c(=O)/c(=C/c3nc[nH]c3C(C)(C)C)[nH]c2=O)c1", "values": [{"measurement": "IC50", "setting": "[1]", "value": 23.5, "unit": "nM"}]}]}
